In ChEMBL document CHEMBL5150055, “B-cell Lymphoma 6 Inhibitors: Current Advances and Prospects of Drug Development for Diffuse Large B-cell Lymphomas” (J Med Chem, 2022):
pIC50, pKd: −log10 of the molar value. Values after ≈ are worked out from the molar mass of the structure shown.

Assays:
DOHH-2 = test: Antitumor activity against BCL6 dependent human DOHH-2 cells assessed as cell growth inhibition; format: functional, cell-based
Farage = test: Antitumor activity against BCL6 dependent human Farage cells assessed as cell growth inhibition; format: functional, cell-based
[1] = target: T1, B-cell lymphoma 6 protein (Homo sapiens, UniProt P41182); test: Inhibition of BCL6 (unknown origin) by HTRF assay
L02 = test: Antitumor activity against human L02 cells assessed as cell growth inhibition; format: functional, cell-based
OCI-Ly7 [2] = test: Antitumor activity against BCL6 dependent human OCILY7 cells assessed as cell growth inhibition; format: functional, cell-based
SU-DHL-6 = test: Antitumor activity against BCL6 dependent human SU-DHL-6 cells assessed as cell growth inhibition; format: functional, cell-based
[3] = target: T1, B-cell lymphoma 6 protein; test: Binding affinity to BCL6 BTB domain (unknown origin) by SPR analysis
SUD4 = test: Antitumor activity against BCL6 dependent human SU-DHL-4 cells assessed as cell growth inhibition; format: functional, cell-based
[4] = target: T1, B-cell lymphoma 6 protein; test: Binding affinity to BCL6 (unknown origin) assessed as ratio of Kinact/Ki incubated for 4 hrs by IPC assay
[5] = target: T1, B-cell lymphoma 6 protein; test: Binding affinity to BCL6 BTB domain (5 to 129 residues) (unknown origin) expressed in Escherichia coli using 5-TAMRA-RSEIISTAPSSWVVPGP as substrate incubated for 1 hrs by FP assay
[6] = target: T1, B-cell lymphoma 6 protein; test: Binding affinity to BCL6 BTB domain (5 to 129 residues) (unknown origin) expressed in Escherichia coli by SPR analysis
[7] = Aqueous solubility of compound; format: physicochemical; details: buffer
[8] = target: T1, B-cell lymphoma 6 protein; test: Inhibition of D2-SMRT peptide binding to human BCL6 BTB-POZ domain incubated for 60 mins by TR-FRET assay
[9] = target: T1, B-cell lymphoma 6 protein; test: Displacement AF647-NCOR peptide from human BCL6 BTB-POZ domain incubated for 60 mins by TR-FRET assay
[10] = target: T1, B-cell lymphoma 6 protein; test: Displacement AF647-BCOR peptide from human BCL6 BTB-POZ domain incubated for 60 mins by TR-FRET assay
OCI-Ly1 = test: Antiproliferative activity against human OCI-Ly1 cells assessed as growth inhbition by measuring metabolic viability incubated for 48 hrs by fluorometric resazurin reduction method; format: functional, cell-based; details: OCI-Ly1, 48 h
OCI-Ly7 [11] = test: Antiproliferative activity against human OCILY7 cells assessed as growth inhbition by measuring metabolic viability incubated for 48 hrs by fluorometric resazurin reduction method; format: functional, cell-based; details: OCI-Ly7, 48 h
[12] = Binding affinity to wild type full length BCL6 BTB domain SMRT BBD motif sequence mutant (unknown origin) transfected in human HEK293 cells by electrophoretic mobility shift assay; format: cell-based
OCI-Ly10 = test: Antiproliferative activity against human OCI-Ly10 cells assessed as growth inhbition by measuring metabolic viability incubated for 48 hrs by fluorometric resazurin reduction method; format: functional, cell-based; details: OCI-Ly10, 48 h
[13] = target: T1, B-cell lymphoma 6 protein; test: Binding affinity to wild type full length BCL6 BTB domain having SMRT BBD motif sequence (unknown origin) transfected in human HEK293 cells by electrophoretic mobility shift assay; format: cell-based

`C[C@@H]1CN(c2ncc(F)c(Nc3ccc(NC(=O)c4cccc(Br)n4)cc3)n2)C[C@H](C)N1` showed a pIC50 (DOHH-2) of 5.96, a pIC50 (Farage) of 5.96 and a pKd [1] of 5.86. For the same molecule, the pIC50 (L02) was 4.67, the pIC50 (OCI-Ly7 [2]) was 5.96 and the pIC50 (SU-DHL-6) was 5.96. For the same molecule, the pKd [3] was 5.79 and the pIC50 (SUD4) was 5.86.
For `O=C(CCl)NCCCCn1c(=O)[nH]c2ccc(Nc3ccc([N+](=O)[O-])cc3Cl)cc21`, the Ratio [4] was 3 10^1/M/s.
For `Cc1cc(C)n(-c2ncc(Cl)c(Nc3ccc(Cl)cc3)n2)n1`, the pKd [5] was 4.74 and the pKd [6] was 4.70.
Work on `C[C@@H](NC(=O)COC(=O)CCN1C(=O)/C(=C2/C(=O)Nc3ccc(Cl)cc32)SC1=S)C(=O)N[C@@H](CCC(=O)O)C(=O)O` yielded a solubility [7] of 0.218 µg/mL (≈ 0.348 µM).
With `Cc1ncccc1[C@H]1C[C@@H](c2cccc3nc(N)ccc23)Nc2c(F)cnn21` the pIC50 [8] was 8.00, the pIC50 [9] was 7.60 and the pIC50 [10] was 7.60.
In the case of `CCC(=O)NCCN1C(=O)C(CCCCNC(=O)CCl)Oc2cc(Nc3cc(OC4CCOCC4)c([N+](=O)[O-])cc3Cl)ccc21` (stereo unspecified), the Ratio [4] was 1.9 10^4/M/s.
In the case of H-HHHHHHPTATHAGLVATVKEAGRSIHEI-OH, the pIC50 (OCI-Ly1) was 4.95, the pIC50 (OCI-Ly7 [11]) was 4.95 and the pKd [12] was 3.83. The pIC50 (OCI-Ly10) was 4.95 and the pKd [13] was 4.99.
